Measured values: US20260069588A1, “VEPDEGESTRANT FOR USE IN TREATING CANCER” (Arvinas Operation, Inc., priority 2022, published 2026)

Assay: FIH Study Part A dose escalation: adverse events
From the text: TEAEs and TRAEs from the clinical study database were coded to system organ class and preferred term using MedDRA version 22.0 and SAEs from the centralized safety database were coded using MedDRA version 25.0. The severity of adverse events was graded according to the NCI CTCAE version 5.0.

O=C1CC[C@H](N2Cc3cc(N4CCN(CC5CCN(c6ccc([C@@H]7c8ccc(O)cc8CC[C@@H]7c7ccccc7)cc6)CC5)CC4)ccc3C2=O)C(=O)N1 [Compound A, (S)-3-(5-(4-((1-(4-((1R,2S)-6-hydroxy-2-phenyl-1,2,3,4-tetrahydronaphthalen-1-yl)phenyl)piperidin-4-yl)methyl)piperazin-1-yl)-1-oxoisoindolin-2-yl)piperidine-2,6-dione]
TEAE Alanine aminotransferase increased (30 mg (N=3)): 0 n
TEAE Arthralgia (30 mg (N=3)): 0 n
TEAE Aspartate aminotransferase increased (30 mg (N=3)): 0 n
TEAE Back pain (30 mg (N=3)): 0 n
TEAE Constipation (30 mg (N=3)): 0 n
TEAE Decreased appetite (30 mg (N=3)): 0 n
TEAE Diarrhea (30 mg (N=3)): 0 n
TEAE Dizziness (30 mg (N=3)): 0 n
TEAE Fatigue (30 mg (N=3)): 0 n
TEAE Headache (30 mg (N=3)): 0 n
TEAE Hot flush (30 mg (N=3)): 1 n
TEAE Hyperglycemia (30 mg (N=3)): 0 n
TEAE Insomnia (30 mg (N=3)): 1 n
TEAE Nausea (30 mg (N=3)): 0 n
TEAE Pain in extremity (30 mg (N=3)): 0 n
TEAE Vomiting (30 mg (N=3)): 0 n
TRAE Arthralgia (30 mg (N=3)): 0 n
TRAE Constipation (30 mg (N=3)): 0 n
TRAE Decreased appetite (30 mg (N=3)): 0 n
TRAE Fatigue (30 mg (N=3)): 0 n
TRAE Hot flush (30 mg (N=3)): 0 n
TRAE Nausea (30 mg (N=3)): 0 n
TRAE Vomiting (30 mg (N=3)): 0 n
TEAE Alanine aminotransferase increased (60 mg (N=3)): 0 n
TEAE Arthralgia (60 mg (N=3)): 1 n
TEAE Aspartate aminotransferase increased (60 mg (N=3)): 0 n
TEAE Back pain (60 mg (N=3)): 0 n
TEAE Constipation (60 mg (N=3)): 1 n
TEAE Decreased appetite (60 mg (N=3)): 0 n
TEAE Diarrhea (60 mg (N=3)): 0 n
TEAE Dizziness (60 mg (N=3)): 1 n
TEAE Fatigue (60 mg (N=3)): 1 n
TEAE Headache (60 mg (N=3)): 1 n
TEAE Hot flush (60 mg (N=3)): 0 n
TEAE Hyperglycemia (60 mg (N=3)): 0 n
TEAE Insomnia (60 mg (N=3)): 0 n
TEAE Nausea (60 mg (N=3)): 2 n
TEAE Pain in extremity (60 mg (N=3)): 1 n
TEAE Vomiting (60 mg (N=3)): 0 n
TRAE Arthralgia (60 mg (N=3)): 1 n
TRAE Constipation (60 mg (N=3)): 0 n
TRAE Decreased appetite (60 mg (N=3)): 0 n
TRAE Fatigue (60 mg (N=3)): 1 n
TRAE Hot flush (60 mg (N=3)): 0 n
TRAE Nausea (60 mg (N=3)): 2 n
TRAE Vomiting (60 mg (N=3)): 0 n
TEAE Alanine aminotransferase increased (100 mg (N=9)): 0 n
TEAE Arthralgia (100 mg (N=9)): 2 n
TEAE Aspartate aminotransferase increased (100 mg (N=9)): 0 n
TEAE Back pain (100 mg (N=9)): 1 n
TEAE Constipation (100 mg (N=9)): 2 n
TEAE Decreased appetite (100 mg (N=9)): 2 n
TEAE Diarrhea (100 mg (N=9)): 4 n
TEAE Dizziness (100 mg (N=9)): 0 n
TEAE Fatigue (100 mg (N=9)): 2 n
TEAE Headache (100 mg (N=9)): 1 n
TEAE Hot flush (100 mg (N=9)): 1 n
TEAE Hyperglycemia (100 mg (N=9)): 0 n
TEAE Insomnia (100 mg (N=9)): 0 n
TEAE Nausea (100 mg (N=9)): 2 n
TEAE Pain in extremity (100 mg (N=9)): 0 n
TEAE Vomiting (100 mg (N=9)): 1 n
TRAE Arthralgia (100 mg (N=9)): 1 n
TRAE Constipation (100 mg (N=9)): 1 n
TRAE Decreased appetite (100 mg (N=9)): 2 n
TRAE Fatigue (100 mg (N=9)): 1 n
TRAE Hot flush (100 mg (N=9)): 1 n
TRAE Nausea (100 mg (N=9)): 1 n
TRAE Vomiting (100 mg (N=9)): 0 n
TEAE Alanine aminotransferase increased (120 mg (N=7)): 1 n
TEAE Arthralgia (120 mg (N=7)): 2 n
TEAE Aspartate aminotransferase increased (120 mg (N=7)): 3 n
TEAE Back pain (120 mg (N=7)): 1 n
TEAE Constipation (120 mg (N=7)): 2 n
TEAE Decreased appetite (120 mg (N=7)): 3 n
TEAE Diarrhea (120 mg (N=7)): 0 n
TEAE Dizziness (120 mg (N=7)): 1 n
TEAE Fatigue (120 mg (N=7)): 0 n
TEAE Headache (120 mg (N=7)): 2 n
TEAE Hot flush (120 mg (N=7)): 1 n
TEAE Hyperglycemia (120 mg (N=7)): 1 n
TEAE Insomnia (120 mg (N=7)): 1 n
TEAE Nausea (120 mg (N=7)): 2 n
TEAE Pain in extremity (120 mg (N=7)): 2 n
TEAE Vomiting (120 mg (N=7)): 2 n
TRAE Arthralgia (120 mg (N=7)): 2 n
TRAE Constipation (120 mg (N=7)): 1 n
TRAE Decreased appetite (120 mg (N=7)): 3 n
TRAE Fatigue (120 mg (N=7)): 0 n
TRAE Hot flush (120 mg (N=7)): 0 n
TRAE Nausea (120 mg (N=7)): 2 n
TRAE Vomiting (120 mg (N=7)): 2 n
TEAE Alanine aminotransferase increased (180 mg (N=7)): 2 n
TEAE Arthralgia (180 mg (N=7)): 2 n
TEAE Aspartate aminotransferase increased (180 mg (N=7)): 2 n
TEAE Back pain (180 mg (N=7)): 0 n
TEAE Constipation (180 mg (N=7)): 1 n
TEAE Decreased appetite (180 mg (N=7)): 0 n
TEAE Diarrhea (180 mg (N=7)): 0 n
TEAE Dizziness (180 mg (N=7)): 0 n
TEAE Fatigue (180 mg (N=7)): 2 n
TEAE Headache (180 mg (N=7)): 0 n
TEAE Hot flush (180 mg (N=7)): 0 n
TEAE Hyperglycemia (180 mg (N=7)): 0 n
TEAE Insomnia (180 mg (N=7)): 0 n
TEAE Nausea (180 mg (N=7)): 2 n
TEAE Pain in extremity (180 mg (N=7)): 1 n
TEAE Vomiting (180 mg (N=7)): 0 n
TRAE Arthralgia (180 mg (N=7)): 1 n
TRAE Constipation (180 mg (N=7)): 0 n
TRAE Decreased appetite (180 mg (N=7)): 0 n
TRAE Fatigue (180 mg (N=7)): 1 n
TRAE Hot flush (180 mg (N=7)): 0 n
TRAE Nausea (180 mg (N=7)): 2 n
TRAE Vomiting (180 mg (N=7)): 0 n
TEAE Alanine aminotransferase increased (200 mg (N=8)): 2 n
TEAE Arthralgia (200 mg (N=8)): 1 n
TEAE Aspartate aminotransferase increased (200 mg (N=8)): 3 n
TEAE Back pain (200 mg (N=8)): 1 n
TEAE Constipation (200 mg (N=8)): 2 n
TEAE Decreased appetite (200 mg (N=8)): 0 n
TEAE Diarrhea (200 mg (N=8)): 1 n
TEAE Dizziness (200 mg (N=8)): 0 n
TEAE Fatigue (200 mg (N=8)): 1 n
TEAE Headache (200 mg (N=8)): 1 n
TEAE Hot flush (200 mg (N=8)): 1 n
TEAE Hyperglycemia (200 mg (N=8)): 1 n
TEAE Insomnia (200 mg (N=8)): 1 n
TEAE Nausea (200 mg (N=8)): 3 n
TEAE Pain in extremity (200 mg (N=8)): 0 n
TEAE Vomiting (200 mg (N=8)): 1 n
TRAE Arthralgia (200 mg (N=8)): 1 n
TRAE Constipation (200 mg (N=8)): 2 n
TRAE Decreased appetite (200 mg (N=8)): 0 n
TRAE Fatigue (200 mg (N=8)): 0 n
TRAE Hot flush (200 mg (N=8)): 1 n
